{
  "source": "patent US10413531B2",
  "about": "“Methods of treating bladder cancer” (Abraxis BioScience, LLC, priority 2013, dated 2019)",
  "origin": "cited, not measured here",
  "key": {"ABCB1/ABCG2": {"test_system": "ABCB1/ABCG2", "settings": "Lin et al. (2013) Int J Cancer"}, "[1]": {"settings": "Lin et al. (2013) Int J Cancer"}},
  "data": [
    {"molecule": "COc1ccc(COc2cc3oc(=O)c4cc(C(C)O)ccc4c3cc2OC)cc1", "note": "(centres unmarked) [Palomid 529]", "values": [
      {"measurement": "affinity for ABCB1/ABCG2", "setting": "ABCB1/ABCG2", "result": "lacks affinity for ABCB1/ABCG2"},
      {"measurement": "brain penetration", "setting": "[1]", "result": "good brain penetration"}
    ]}
  ]
}
